In patent US20150087627A1, “COMBINATION OF KINASE INHIBITORS AND USES THEREOF” (Intellikine LLC, priority 2011, published 2015):

Assays:
PTEN mutant cells = experiment: Western blot of Akt, S6 and 4EBP phosphorylation in PTEN mutant cells (FIG. 6B); format: cell-based
[1] = system: PI3 kinase signaling pathway in MDA-MB-361, HCC-1419, NCI-H1048; experiment: Cellular signaling immunoblot in human tumor cell lines; format: cell-based; settings: Compound B 5-100 nM, Compound A 1 and 3 μM, 2 or 24 hours, Western blot, FIG. 15
Protocol: Compound A was synthesized at Intellikine and was supplied as a stock of 10 mM in 100% DMSO and diluted in the respective cell line's growth media.
Prior to treatment, cells were plated at 2×10^5 cells/well in 12-well plates in normal growth media and grown to 80% confluence.
Media was aspirated, cells were washed with 1×PBS, Ice cold 1× Cell Lysis Buffer was prepared from 10× stock and 100 μM 4-(2-Aminoethyl)benzenesulfonyl fluoride hydrochloride (AEBSF) and 1 mM sodium orthovanadate […] was added. Cells were lysed by adding 1× Cell Lysis Buffer (100 μL per well of 12-well plate of cells). Cells incubated on ice for 20 to 30 minutes to allow complete lysis, and lysates were transferred to microcentrifuge tubes, sonicated for 10 seconds, and subjected to microcentrifugation at 14,000×g for 10 minutes at 4° C. Cleared supernatants were transferred to fresh tubes, and stored at −20° C. for Western blot analysis. […] Molecular weight markers were loaded, the gel electrophoresed at 200V for 40 minutes.
The gels were electrotransferred to nitrocellulose membranes, and incubated in blocking buffer (Tris buffered saline plus 0.5% Tween-20 (TBS/T)+5% bovine serum albumin (BSA)) for 1 hour at room temperature. […]

[2] = system: HCC70 human breast cancer xenografts; experiment: Antitumor activity, multiple dosing schedules, HCC70 xenografts (Example 43); format: in vivo, Mus musculus; settings: Day 35
Protocol: Compound A was prepared in 5% NMP+95% PEG400 every 5-7 days and stored at approximately 25° C., shielded from light. The control article used in this study was 5% NMP+95% PEG400. Compounds were completely dissolved in NMP by sonication followed by the addition of the appropriate volume of PEG400. The solution was vortexed and sonicated again to ensure complete mixing.
Low passage HCC70 cells (ATCC) were grown in RPMI (Life Technologies) supplemented with 10% Fetal Bovine Serum (FBS) (PAA Laboratories Pty Ltd) and 1× penicillin-streptomycin (Life Technologies) and supplied at a concentration of 5.0×10^7 cells/mL in serum-free RPMI and 50% Matrigel (BD Biosciences). HCC70 cells (5.0×10^6 cells/animal, 0.1-mL injection volume) were implanted subcutaneously (SC) into flank of female athymic nude mice. The animals used in this study are described in the following table.
Five-week old female athymic nude mice were inoculated SC in flank (cell suspension in serum free RPMI and 50% Matrigel) with 5.0×10^6 HCC70 cells. Tumor growth was monitored with vernier calipers. The mean TV (MTV) was calculated using the formula V=W^2×L/2. When the MTV reached approximately 160 to 180 mm^3, the animals were randomized into 13 treatment groups (n=5/group). […] Tumor growth and body weight were measured twice per week. Percent TGI and body weight change were calculated on Day 35. Treatment started on Day 0 for 28 days. Antitumor activity was determined by calculating the percent TGI using Equation 1: Percent TGI=(mean tumor volume [MTV] of the control group−MTV of a treated group)/MTV of the control group×100.
The differences in the tumor growth trends over time between pairs of treatment groups were assessed using linear mixed effects regression models. These models account for the fact that each animal was measured at multiple time points. A separate model was fit for each comparison, and the area under the curve (AUC) values for each treatment group were calculated using the predicted values from the model. The percent decrease in AUC (ΔAUC) relative to the reference group was then calculated.
Drug combinations were assessed for synergy using observed AUC values. The change in AUC relative to the control was calculated for both single agent treatment groups as well as the combination group. The interaction between the two compounds was then assessed by comparing the change in AUC observed in the combination group to the sum of the changes observed in both single agents. The results can be divided into four categories: synergistic, additive, sub-additive, and antagonistic. Further details regarding combination analyses are provided in the appendix. All p values less than 0.05 were considered significant.

Row | Structure (SMILES) | inhibition of Akt, S6, and 4EBP phosphorylation (PTEN mutant cells) | inhibition of phosphorylation of downstream targets AKT, S6, 4E-BP1 [1] | TGI ([2]; 70 mg/kg QD 3on/4off PO, not significantly different from control) | TGI ([2]; 140 mg/kg QD 3on/4off PO) | TGI ([2]; 210 mg/kg QW PO, not significantly different from control) | TGI ([2]; 420 mg/kg QW PO) | TGI ([2]; 0.3 mg/kg QD PO) | TGI ([2]; 1.0 mg/kg QD 3on/4off PO) | TGI ([2]; 3.0 mg/kg QW PO)
1 | Nc1nc2cc(-c3ccc4ncc(C(=O)N5CCOCC5)n4c3)ccc2o1 [Compound A] | not | potently inhibited | 19.4% | 41.0% | 21.0% | 40.8% |  |  | 
2 | CC(C)n1nc(-c2ccc3oc(N)nc3c2)c2c(N)ncnc21 [Compound B] | selective inhibition | potently inhibited |  |  |  |  | 36.9% | 47.2% | 35.8%
